Columns and labels:
Type in all cases: in vivo
[1] = test system: barnyardgrass (Echinochloa crus-galli); test: Test A pre-/postemergence plant response; conditions: for Barnyardgrass plant response rating: visual injury, 0 to 100 scale (0 no effect, 100 complete control), approx. ten days
Outline: (§1)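 Visually rated 0–100 injury (100 = complete control) versus untreated plants, ~10 days in greenhouse. Application pre- (soil spray, loam/sand) and postemergence (2–10 cm, 1–2 leaf stage), same timepoint.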

[2] = test system: wheat (Triticum aestivum); test: Test A pre-/postemergence plant response
Outline: as §1

[3] = test system: large crabgrass (Digitaria sanguinalis); test: Test A pre-/postemergence plant response; conditions: for Crabgrass, Large plant response rating: visual injury, 0 to 100 scale (0 no effect, 100 complete control), approx. ten days
Outline: as §1

[4] = test system: morningglory (Ipomoea spp.); test: Test A pre-/postemergence plant response
Outline: as §1

[5] = test system: pigweed (Amaranthus retroflexus); test: Test A pre-/postemergence plant response
Outline: as §1

[6] = test system: velvetleaf (Abutilon theophrasti); test: Test A pre-/postemergence plant response
Outline: as §1

[7] = test system: giant foxtail (Setaria faberii); test: Test A pre-/postemergence plant response
Outline: as §1

corn (Zea mays) = test: Test A pre-/postemergence plant response; conditions: for Corn plant response rating: visual injury, 0 to 100 scale (0 no effect, 100 complete control), approx. ten days
Outline: as §1

[8] = test system: barnyardgrass (Echinochloa crus-galli); test: Test B flooded paddy test; conditions: for Plant response rating, Flood, Barnyardgrass: 250 g ai/ha, flooded paddy test, visual rating on 0 to 100 scale (0 no effect, 100 complete control) after 13 to 15 days; for Plant response rating, Barnyardgrass: Flood (flooded paddy test), 13 to 15 days; for Barnyardgrass plant response rating: Flood, 31 g ai/ha, scale 0 to 100 (0 no effect, 100 complete control)
Outline: (§2)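 Ratings are visual, 0–100 (100 = complete control), taken versus untreated controls 13 to 15 days after treatment in the greenhouse. Compound went straight into paddy water held 3 cm above soil, applied to 2-leaf-stage plants of four species.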

rice (Oryza sativa) = test: Test B flooded paddy test; conditions: for Plant response rating, Flood, Rice: 250 g ai/ha, flooded paddy test, visual rating on 0 to 100 scale (0 no effect, 100 complete control) after 13 to 15 days; for Plant response rating, Rice: Flood (flooded paddy test), 13 to 15 days; for Rice plant response rating: Flood, 31 g ai/ha, scale 0 to 100 (0 no effect, 100 complete control)
Outline: as §2

[9] = test system: ducksalad (Heteranthera limosa); test: Test B flooded paddy test; conditions: for Plant response rating, Flood, Ducksalad: 250 g ai/ha, flooded paddy test, visual rating on 0 to 100 scale (0 no effect, 100 complete control) after 13 to 15 days; for Plant response rating, Ducksalad: Flood (flooded paddy test), 13 to 15 days; for Ducksalad plant response rating: Flood, 31 g ai/ha, scale 0 to 100 (0 no effect, 100 complete control)
Outline: as §2

[10] = test system: umbrella sedge (Cyperus difformis); test: Test B flooded paddy test; conditions: for Plant response rating, Flood, Sedge, Umbrella: 250 g ai/ha, flooded paddy test, visual rating on 0 to 100 scale (0 no effect, 100 complete control) after 13 to 15 days; for Plant response rating, Sedge, Umbrella: Flood (flooded paddy test), 13 to 15 days; for Sedge, Umbrella plant response rating: Flood, 31 g ai/ha, scale 0 to 100 (0 no effect, 100 complete control)
Outline: as §2

[11] = Postemergence, 125 g ai/ha, 0 to 100 scale where 0 is no effect and 100 is complete control
[12] = Preemergence, 125 g ai/ha, 0 to 100 scale where 0 is no effect and 100 is complete control, approximately ten days
[13] = Preemergence, 500 g ai/ha, 0 to 100 scale, 0 = no effect, 100 = complete control
[14] = Postemergence, 125 g ai/ha, visual injury, 0 to 100 scale (0 no effect, 100 complete control), approx. ten days
[15] = Postemergence, 500 g ai/ha, visual injury, 0 to 100 scale (0 no effect, 100 complete control), approx. ten days
[16] = 62 g ai/ha, scale of 0 to 100 where 0 is no effect and 100 is complete control
[17] = 125 g ai/ha, scale 0 to 100, 0 is no effect, 100 is complete control

Compound: O=C(C1=C(O)C2CCC(C2)C1=O)c1cnc(-c2ccccc2)n(C2CCCCCC2)c1=O (centres unmarked) [Compound 253]
- Plant response rating, Barnyardgrass [1, 11]: 100
- Barnyardgrass plant response rating ([1]; Postemergence, 500 g ai/ha): 100
- Plant response rating, Barnyardgrass [1, 12]: 10
- Plant response rating, Barnyardgrass [1, 13]: 20
- Plant response rating, Wheat [2, 14]: 0
- Wheat plant response rating [2, 15]: 20
- Plant response rating, Wheat [2, 12]: 0
- Plant response rating, Wheat [2, 13]: 20
- Plant response rating, Crabgrass, Large [3, 11]: 80
- Crabgrass, Large plant response rating ([3]; Postemergence, 500 g ai/ha): 100
- Plant response rating, Crabgrass, Large [3, 12]: 30
- Plant response rating, Crabgrass, Large [3, 13]: 80
- Plant response rating, Morningglory [4, 14]: 100
- Morningglory plant response rating [4, 15]: 100
- Plant response rating, Morningglory [4, 12]: 40
- Plant response rating, Morningglory [4, 13]: 70
- Plant response rating, Pigweed [5, 14]: 90
- Pigweed plant response rating [5, 15]: 100
- Plant response rating, Pigweed [5, 12]: 20
- Plant response rating, Pigweed [5, 13]: 80
- Plant response rating, Velvetleaf [6, 14]: 100
- Velvetleaf plant response rating [6, 15]: 100
- Plant response rating, Velvetleaf [6, 12]: 50
- Plant response rating, Velvetleaf [6, 13]: 90
- Plant response rating, Foxtail, Giant [7, 14]: 60
- Foxtail, Giant plant response rating [7, 15]: 100
- Plant response rating, Foxtail, Giant [7, 12]: 20
- Plant response rating, Foxtail, Giant [7, 13]: 70
- Plant response rating, Corn (corn (Zea mays); [11]): 10
- Corn plant response rating (corn (Zea mays); Postemergence, 500 g ai/ha): 40
- Plant response rating, Corn (corn (Zea mays); [12]): 0
- Plant response rating, Flood, Barnyardgrass [8]: 20
- Plant response rating, Barnyardgrass [8, 16]: 0
- Plant response rating, Barnyardgrass [8, 17]: 0
- Barnyardgrass plant response rating [8]: 0
- Plant response rating, Flood, Rice (rice (Oryza sativa)): 20
- Plant response rating, Rice (rice (Oryza sativa); [16]): 0
- Plant response rating, Rice (rice (Oryza sativa); [17]): 0
- Rice plant response rating (rice (Oryza sativa)): 0
- Plant response rating, Flood, Ducksalad [9]: 90
- Plant response rating, Ducksalad [9, 16]: 75
- Plant response rating, Ducksalad [9, 17]: 85
- Ducksalad plant response rating [9]: 60
- Plant response rating, Flood, Sedge, Umbrella [10]: 85
- Plant response rating, Sedge, Umbrella [10, 16]: 65
- Plant response rating, Sedge, Umbrella [10, 17]: 75
- Sedge, Umbrella plant response rating [10]: 60

Compound: COc1ccc(-n2c(-c3ccccc3)ncc(C(=O)C3=C(O)CCCC3=O)c2=O)c(OC)c1 [Compound 256]
- Plant response rating, Barnyardgrass [1, 11]: 40
- Barnyardgrass plant response rating ([1]; Postemergence, 500 g ai/ha): 90
- Plant response rating, Barnyardgrass [1, 12]: 0
- Plant response rating, Barnyardgrass [1, 13]: 70
- Plant response rating, Wheat [2, 14]: 0
- Wheat plant response rating [2, 15]: 0
- Plant response rating, Wheat [2, 12]: 0
- Plant response rating, Wheat [2, 13]: 0
- Plant response rating, Crabgrass, Large [3, 11]: 30
- Crabgrass, Large plant response rating ([3]; Postemergence, 500 g ai/ha): 80
- Plant response rating, Crabgrass, Large [3, 12]: 10
- Plant response rating, Crabgrass, Large [3, 13]: 80
- Plant response rating, Morningglory [4, 14]: 30
- Morningglory plant response rating [4, 15]: 80
- Plant response rating, Morningglory [4, 12]: 0
- Plant response rating, Morningglory [4, 13]: 50
- Plant response rating, Pigweed [5, 14]: 90
- Pigweed plant response rating [5, 15]: 100
- Plant response rating, Pigweed [5, 12]: 0
- Plant response rating, Pigweed [5, 13]: 90
- Plant response rating, Velvetleaf [6, 14]: 100
- Velvetleaf plant response rating [6, 15]: 100
- Plant response rating, Velvetleaf [6, 12]: 20
- Plant response rating, Velvetleaf [6, 13]: 80
- Plant response rating, Foxtail, Giant [7, 14]: 20
- Foxtail, Giant plant response rating [7, 15]: 70
- Plant response rating, Foxtail, Giant [7, 12]: 0
- Plant response rating, Foxtail, Giant [7, 13]: 30
- Plant response rating, Corn (corn (Zea mays); [11]): 0
- Corn plant response rating (corn (Zea mays); Postemergence, 500 g ai/ha): 10
- Plant response rating, Corn (corn (Zea mays); [12]): 0
- Plant response rating, Corn (corn (Zea mays); [13]): 0
- Plant response rating, Flood, Barnyardgrass [8]: 0
- Plant response rating, Barnyardgrass [8, 16]: 0
- Plant response rating, Barnyardgrass [8, 17]: 0
- Barnyardgrass plant response rating [8]: 0
- Plant response rating, Flood, Rice (rice (Oryza sativa)): 0
- Plant response rating, Rice (rice (Oryza sativa); [16]): 0
- Plant response rating, Rice (rice (Oryza sativa); [17]): 0
- Rice plant response rating (rice (Oryza sativa)): 0
- Plant response rating, Flood, Ducksalad [9]: 85
- Plant response rating, Ducksalad [9, 16]: 40
- Plant response rating, Ducksalad [9, 17]: 80
- Ducksalad plant response rating [9]: 30
- Plant response rating, Flood, Sedge, Umbrella [10]: 75
- Plant response rating, Sedge, Umbrella [10, 16]: 40
- Plant response rating, Sedge, Umbrella [10, 17]: 75
- Sedge, Umbrella plant response rating [10]: 30
